From patent US20260234167A1, “SOLID STATE FORMS OF DELGOCITINIB AND PROCESS THEREOF” (ASSIA CHEMICAL INDUSTRIES LTD., priority 2023, published 2026)
Each block holds one molecule with its values, some of them ahead of it.

How the values were obtained:
Type in all cases: physicochemical
[1] = Grinding experiments (strong grinding in mortar with pestle for 2 minutes), XRPD after grinding; conditions: for XRPD after grinding: about 20 mg ground in mortar with pestle for 2 minutes
Method: Powder X-ray Diffraction was performed on an X-Ray powder diffractometer Bruker D8 Advance; CuK radiation (λ=1.5418 Å); Lynx eye detector; laboratory temperature 22-25° C.; PMMA specimen holder ring. Prior to analysis, the samples were gently ground by means of mortar and pestle in order to obtain a fine powder. The ground sample was adjusted into a cavity of the sample holder and the surface of the sample was smoothed by means of a cover glass. Measurement parameters: Scan range: 2-40 degrees 2-theta; Scan mode: continuous; Step size: 0.05 degrees; Time per step: 0.5 s; Sample spin: 30 rpm; Sample holder: PMMA specimen holder ring with silicon low background. Samples of Delgocitinib forms according to the disclosure were subjected to strong grinding. In these experiments, about 20 mg of the sample was placed in a mortar and ground with a pestle for 2 minutes. XRPD analysis was performed on each sample after the grinding experiment (Table 4): […]

[2] = Storage stability at different relative humidities at ambient temperature, XRPD after 7 days; conditions: for XRPD after storage at different relative humidities for 7 days: ambient temperature
Method: Powder X-ray Diffraction was performed on an X-Ray powder diffractometer Bruker D8 Advance; CuK radiation (λ=1.5418 Å); Lynx eye detector; laboratory temperature 22-25° C.; PMMA specimen holder ring. Prior to analysis, the samples were gently ground by means of mortar and pestle in order to obtain a fine powder. The ground sample was adjusted into a cavity of the sample holder and the surface of the sample was smoothed by means of a cover glass. Measurement parameters: Scan range: 2-40 degrees 2-theta; Scan mode: continuous; Step size: 0.05 degrees; Time per step: 0.5 s; Sample spin: 30 rpm; Sample holder: PMMA specimen holder ring with silicon low background. Samples of crystalline forms of Delgocitinib according to the disclosure, were subjected to conditions of different relative humidities at ambient temperature. XRPD analysis was performed on the samples after 7 days.

[3] = Stability to compression (2 tons, hydraulic press), XRPD after 2 minutes
Method: Powder X-ray Diffraction was performed on an X-Ray powder diffractometer Bruker D8 Advance; CuK radiation (λ=1.5418 Å); Lynx eye detector; laboratory temperature 22-25° C.; PMMA specimen holder ring. Prior to analysis, the samples were gently ground by means of mortar and pestle in order to obtain a fine powder. The ground sample was adjusted into a cavity of the sample holder and the surface of the sample was smoothed by means of a cover glass. Measurement parameters: Scan range: 2-40 degrees 2-theta; Scan mode: continuous; Step size: 0.05 degrees; Time per step: 0.5 s; Sample spin: 30 rpm; Sample holder: PMMA specimen holder ring with silicon low background. Samples of Delgocitinib were subjected to pressures of 2 tons (Atlas® Autopress hydraulic press, set to 2 tons). XRPD analysis was carried out on the samples after 2 minutes.

[4] = Storage stability at different relative humidities and temperatures in packed bags, XRPD after 1, 2, 3 and 6 months
Method: Powder X-ray Diffraction was performed on an X-Ray powder diffractometer Bruker D8 Advance; CuK radiation (λ=1.5418 Å); Lynx eye detector; laboratory temperature 22-25° C.; PMMA specimen holder ring. Prior to analysis, the samples were gently ground by means of mortar and pestle in order to obtain a fine powder. The ground sample was adjusted into a cavity of the sample holder and the surface of the sample was smoothed by means of a cover glass.
Measurement parameters: Scan range: 2-40 degrees 2-theta; Scan mode: continuous; Step size: 0.05 degrees; Time per step: 0.5 s; Sample spin: 30 rpm; Sample holder: PMMA specimen holder ring with silicon low background.
Samples of Delgocitinib polymorph forms according to the disclosure were subjected to conditions of different relative humidities at different temperatures. Forms DL1 was kept in low-density polyethylene bag (twist and tied) covered by triple laminated bag (heat and sealed). Forms DL2, DL3, DL10 and DL11 were kept in low-density polyethylene bag (twist and tied) and covered by triple laminated bag (heat and sealed), while 2 gram silica gel sachet was added in between the two bags.

SMILES: C[C@H]1CN(C(=O)CC#N)[C@]12CCN(c1ncnc3[nH]ccc13)C2 [Form DL1, 3-[(3S,4R)-3-methyl-7-(7H-pyrrolo[2,3-d]pyrimidin-4-yl)-1,7-diazaspiro[3.4]octan-1-yl]-3-oxopropanenitrile]
XRPD after grinding ([1]; listed as DL1): DL1 | Resistance to polymorphic changes on grinding (conclusion in words) ([1]; strong grinding, 2 minutes): resistant to polymorphic changes | XRPD after storage at different relative humidities for 7 days ([2]; 20% relative humidity, listed as DL1): DL1 | Stability after exposure to high and low relative humidity conditions (conclusion in words) ([2]; 20-80% relative humidity, at least 7 days): stable | XRPD after storage at different relative humidities for 7 days ([2]; 40% relative humidity, listed as DL1): DL1 | XRPD after storage at different relative humidities for 7 days ([2]; 60% relative humidity, listed as DL1): DL1 | XRPD after storage at different relative humidities for 7 days ([2]; 80% relative humidity, listed as DL1): DL1 | XRPD after compression force (2 tons for 2 minutes) ([3]; listed as DL1): DL1 | Stability under high pressure conditions (conclusion in words) ([3]; 2 tons, 2 minutes): stable under high pressure conditions | XRPD after storage at 25° C. at 60% RH ([4]; 1 month, listed as DL1): DL1 | XRPD after storage at 25° C. at 60% RH ([4]; 2 months, listed as DL1): DL1 | XRPD after storage at 25° C. at 60% RH ([4]; 3 months, listed as DL1): DL1 | XRPD after storage at 25° C. at 60% RH ([4]; 6 months, listed as DL1): DL1 | Storage stability (conclusion in words) ([4]; 25° C./60% RH and 40° C./75% RH, up to 6 months): highly storage stable | XRPD after storage at 40° C. at 75% RH ([4]; 1 month, listed as DL1): DL1 | XRPD after storage at 40° C. at 75% RH ([4]; 2 months, listed as DL1): DL1 | XRPD after storage at 40° C. at 75% RH ([4]; 3 months, listed as DL1): DL1 | XRPD after storage at 40° C. at 75% RH ([4]; 6 months, listed as DL1): DL1

SMILES: C[C@H]1CN(C(=O)CC#N)[C@]12CCN(c1ncnc3[nH]ccc13)C2 [Form DL2, 3-[(3S,4R)-3-methyl-7-(7H-pyrrolo[2,3-d]pyrimidin-4-yl)-1,7-diazaspiro[3.4]octan-1-yl]-3-oxopropanenitrile]
XRPD after grinding ([1]; listed as DL2): DL2 | XRPD after storage at different relative humidities for 7 days ([2]; 20% relative humidity, listed as DL2): DL2 | XRPD after storage at different relative humidities for 7 days ([2]; 40% relative humidity, listed as DL2): DL2 | XRPD after storage at different relative humidities for 7 days ([2]; 60% relative humidity, listed as DL2): DL2 | XRPD after storage at different relative humidities for 7 days ([2]; 80% relative humidity, listed as DL2): DL2 | XRPD after compression force (2 tons for 2 minutes) ([3]; listed as DL2): DL2 | XRPD after storage at 25° C. at 60% RH ([4]; 1 month, listed as DL2): DL2 | XRPD after storage at 25° C. at 60% RH ([4]; 2 months, listed as DL2): DL2 | XRPD after storage at 25° C. at 60% RH ([4]; 3 months, listed as DL2): DL2 | XRPD after storage at 25° C. at 60% RH ([4]; 6 months, listed as DL2): DL2 | XRPD after storage at 40° C. at 75% RH ([4]; 1 month, listed as DL2): DL2 | XRPD after storage at 40° C. at 75% RH ([4]; 2 months, listed as DL2): DL2 | XRPD after storage at 40° C. at 75% RH ([4]; 3 months, listed as DL2): DL2 | XRPD after storage at 40° C. at 75% RH ([4]; 6 months, listed as DL2): DL2

SMILES: C[C@H]1CN(C(=O)CC#N)[C@]12CCN(c1ncnc3[nH]ccc13)C2 [Form DL3, 3-[(3S,4R)-3-methyl-7-(7H-pyrrolo[2,3-d]pyrimidin-4-yl)-1,7-diazaspiro[3.4]octan-1-yl]-3-oxopropanenitrile]
XRPD after grinding ([1]; listed as DL3): DL3 | XRPD after storage at different relative humidities for 7 days ([2]; 20% relative humidity, listed as DL3): DL3 | XRPD after storage at different relative humidities for 7 days ([2]; 40% relative humidity, listed as DL3): DL3 | XRPD after storage at different relative humidities for 7 days ([2]; 60% relative humidity, listed as DL3): DL3 | XRPD after storage at different relative humidities for 7 days ([2]; 80% relative humidity, listed as DL3): DL3 | XRPD after compression force (2 tons for 2 minutes) ([3]; listed as DL3): DL3 | XRPD after storage at 25° C. at 60% RH ([4]; 1 month, listed as DL3): DL3 | XRPD after storage at 25° C. at 60% RH ([4]; 2 months, listed as DL3): DL3 | XRPD after storage at 25° C. at 60% RH ([4]; 3 months, listed as DL3): DL3 | XRPD after storage at 25° C. at 60% RH ([4]; 6 months, listed as DL3): DL3 | XRPD after storage at 40° C. at 75% RH ([4]; 1 month, listed as DL3): DL3 | XRPD after storage at 40° C. at 75% RH ([4]; 2 months, listed as DL3): DL3 | XRPD after storage at 40° C. at 75% RH ([4]; 3 months, listed as DL3): DL3 | XRPD after storage at 40° C. at 75% RH ([4]; 6 months, listed as DL3): DL3

Further lines, results first:

XRPD after grinding ([1]; listed as DL10): DL10 | XRPD after storage at different relative humidities for 7 days ([2]; 20% relative humidity, listed as DL10): DL10 | XRPD after storage at different relative humidities for 7 days ([2]; 40% relative humidity, listed as DL10): DL10 | XRPD after storage at different relative humidities for 7 days ([2]; 60% relative humidity, listed as DL10): DL10 | XRPD after storage at different relative humidities for 7 days ([2]; 80% relative humidity, listed as DL10): DL10 | XRPD after compression force (2 tons for 2 minutes) ([3]; listed as DL10): DL10 | XRPD after storage at 25° C. at 60% RH ([4]; 1 month, listed as DL10): DL10 | XRPD after storage at 25° C. at 60% RH ([4]; 2 months, listed as DL10): DL10 | XRPD after storage at 25° C. at 60% RH ([4]; 3 months, listed as DL10): DL10 | XRPD after storage at 25° C. at 60% RH ([4]; 6 months, listed as DL10): DL10 | XRPD after storage at 40° C. at 75% RH ([4]; 1 month, listed as DL10): DL10 | XRPD after storage at 40° C. at 75% RH ([4]; 2 months, listed as DL10): DL10 | XRPD after storage at 40° C. at 75% RH ([4]; 3 months, listed as DL10): DL10 | XRPD after storage at 40° C. at 75% RH ([4]; 6 months, listed as DL10): DL10
SMILES: C[C@H]1CN(C(=O)CC#N)[C@]12CCN(c1ncnc3[nH]ccc13)C2 [Form DL10, 3-[(3S,4R)-3-methyl-7-(7H-pyrrolo[2,3-d]pyrimidin-4-yl)-1,7-diazaspiro[3.4]octan-1-yl]-3-oxopropanenitrile]

XRPD after grinding ([1]; listed as DL11): DL11 | XRPD after storage at different relative humidities for 7 days ([2]; 20% relative humidity, listed as DL11): DL11 | XRPD after storage at different relative humidities for 7 days ([2]; 40% relative humidity, listed as DL11): DL11 | XRPD after storage at different relative humidities for 7 days ([2]; 60% relative humidity, listed as DL11): DL11 | XRPD after storage at different relative humidities for 7 days ([2]; 80% relative humidity, listed as DL11): DL11 | XRPD after compression force (2 tons for 2 minutes) ([3]; listed as DL11): DL11 | XRPD after storage at 25° C. at 60% RH ([4]; 1 month, listed as DL11): DL11 | XRPD after storage at 25° C. at 60% RH ([4]; 2 months, listed as DL11): DL11 | XRPD after storage at 25° C. at 60% RH ([4]; 3 months, listed as DL11): DL11 | XRPD after storage at 25° C. at 60% RH ([4]; 6 months, listed as DL11): DL11 | XRPD after storage at 40° C. at 75% RH ([4]; 1 month, listed as DL11): DL11 | XRPD after storage at 40° C. at 75% RH ([4]; 2 months, listed as DL11): DL11 | XRPD after storage at 40° C. at 75% RH ([4]; 3 months, listed as DL11): DL11 | XRPD after storage at 40° C. at 75% RH ([4]; 6 months, listed as DL11): DL11
SMILES: C[C@H]1CN(C(=O)CC#N)[C@]12CCN(c1ncnc3[nH]ccc13)C2 [Form DL11, 3-[(3S,4R)-3-methyl-7-(7H-pyrrolo[2,3-d]pyrimidin-4-yl)-1,7-diazaspiro[3.4]octan-1-yl]-3-oxopropanenitrile]
